The results in this text go back to patent US9393221B2, “Methods and compounds for reducing intracellular lipid storage” (THE GENERAL HOSPITAL CORPORATION, priority 2011, dated 2016).

The structures appear in SMILES notation. Structures can show the parent of a compound that is named as a salt. Where two headings read alike, the source gives them in different places.

This test has as its system ATGL-KO iPSCs. Put plainly: High throughput iPSC chemical screening, Oil Red O (ORO) lipid accumulation. On Z-score: test concentration or dose not given here. In kind it is cell-based, mouse.
Setting [1] is: normalized ORO level vs DMSO-treated cells, compound present during 7 days differentiation, 96-well, negative = decrease in lipid accumulation.

On to `C=C1[C@H]2C[C@@]3([C@@H]1O)[C@@H](C[C@@H]2O)[C@]12[C@@H]4C[C@H]3[C@H]1N(CC)C[C@]4(C)CC[C@@H]2O` [Napelline], for which the Z-score under setting [1] is −1.869.
The same measure, in the same setting: in the case of `c1ccc2c(CC3=NCCN3)cccc2c1` [Naphazoline hydrochloride] it was −0.8458.
On the same count and under the same terms, as for `COc1ccc2cc([C@H](C)C(=O)O)ccc2c1` [Naproxen], the figure is −0.3678; as for `O=C1C[C@@H](c2ccc(O)cc2)Oc2cc(O)cc(O)c21` [Naringenine], 1.336.
Same read-out and setting: in the case of `C[C@@H]1O[C@@H](O[C@H]2[C@H](Oc3cc(O)c4c(c3)O[C@H](c3ccc(O)cc3)CC4=O)O[C@H](CO)[C@@H](O)[C@@H]2O)[C@H](O)[C@H](O)[C@H]1O` [Naringin hydrate] it was 2.68; in that of `C[C@@H]1C/C=C/C=C/C=C/C=C/[C@H](O[C@@H]2O[C@H](C)[C@@H](O)[C@H](N)[C@@H]2O)C[C@@H]2O[C@](O)(C[C@@H](O)C[C@H]3O[C@@H]3/C=C/C(=O)O1)C[C@H](O)[C@H]2C(=O)O` [Natamycin], 0.06039; in that of `CN1CCOC(c2ccccc2)c2ccccc2C1` (stereo not drawn) [Nefopam hydrochloride], −0.0308.
For `NC[C@@H]1O[C@H](O[C@H]2[C@@H](O)[C@H](O[C@@H]3[C@@H](O)[C@H](N)C[C@H](N)[C@H]3O[C@H]3O[C@H](CN)[C@@H](O)[C@H](O)[C@H]3N)O[C@@H]2CO)[C@H](N)[C@@H](O)[C@@H]1O.O=S(=O)(O)O` [Neomycin sulfate], under setting [1], the Z-score is recorded as −0.2127.
In the case of `CN(C)C(=O)Oc1cccc([N+](C)(C)C)c1` [Neostigmine bromide], under setting [1], the Z-score came out at 1.386.
Same read-out and setting: in the case of `CCN[C@@H]1C[C@H](N)[C@@H](O[C@H]2OC(CN)=CC[C@H]2N)[C@H](O)[C@H]1O[C@H]1OC[C@](C)(O)[C@H](NC)[C@H]1O.CCN[C@@H]1C[C@H](N)[C@@H](O[C@H]2OC(CN)=CC[C@H]2N)[C@H](O)[C@H]1O[C@H]1OC[C@](C)(O)[C@H](NC)[C@H]1O.O=S(=O)(O)O.O=S(=O)(O)O.O=S(=O)(O)O.O=S(=O)(O)O.O=S(=O)(O)O` [Netilmicin sulfate] it was 1.062; in that of `O=C(O)c1cccnc1` [Niacin], −0.8285.
On the same count and under the same terms, as for `O=C(CCNNC(=O)c1ccncc1)NCc1ccccc1` [Nialamide], the figure is 0.6794; as for `COC(=O)C1=C(C)NC(C)=C(C(=O)OCCN(C)Cc2ccccc2)C1c1cccc([N+](=O)[O-])c1` (stereo not drawn) [Nicardipine hydrochloride], 1.451; as for `CO[C@]12C[C@@H](COC(=O)c3cncc(Br)c3)CN(C)[C@@H]1Cc1cn(C)c3cccc2c13` [Nicergoline], 0.2433.
The same measure, in the same setting: as for `O=C(Nc1ccc([N+](=O)[O-])cc1Cl)c1cc(Cl)ccc1O` [Niclosamide], the figure is 25.4633.
`Cc1c(NC(=O)c2cccnc2)c(=O)n(-c2ccccc2)n1C` [Nifenazone] gave a Z-score under setting [1] of 0.1131.
The same measure, in the same setting: as for `O=C(O)c1cccnc1Nc1cccc(C(F)(F)F)c1` [Niflumic acid], the figure is −0.6436.
Consider `O=C(N/N=C/c1ccc([N+](=O)[O-])o1)c1ccc(O)cc1` [Nifuroxazide], for which, for the setting “glycolytic switch compounds”, the “Rank in normalized ORO score from screen” value came out at 957. Under setting [1], this compound showed a Z-score of 1.279.
In turn, `CC1CS(=O)(=O)CCN1/N=C/c1ccc([N+](=O)[O-])o1` (stereo not drawn) [Nifurtimox] had a Z-score under setting [1] of 0.2485.
Take `CC1(C)NC(=O)N(c2ccc([N+](=O)[O-])c(C(F)(F)F)c2)C1=O` [Nilutamide]: under setting [1], the Z-score was −1.5582.
The same measure, in the same setting: in the case of `CS(=O)(=O)Nc1ccc([N+](=O)[O-])cc1Oc1ccccc1` [Nimesulide] it was −1.0153; in that of `COCCOC(=O)C1=C(C)NC(C)=C(C(=O)OC(C)C)C1c1cccc([N+](=O)[O-])c1` (stereo not drawn) [Nimodipine], −1.6971; in that of `O=C1NCCN1c1ncc([N+](=O)[O-])s1` [Niridazole], 1.446.
Turning to `CNCCC(Oc1ccccc1OC)c1ccccc1` (stereo not drawn) [Nisoxetine hydrochloride], the Z-score was −1.699.
The compound `Cl.Cl.c1ccc2c3c([nH]c2c1)C1C2CCC(C4CCCNC42)N1CC3` (stereo not drawn) [Nitrarine dihydrochloride] showed a Z-score under setting [1] of −0.8582.
Same read-out and setting: as for `CCOC(=O)C1=C(C)NC(C)=C(C(=O)OC)C1c1cccc([N+](=O)[O-])c1` (stereo not drawn) [Nitrendipine], the figure is −1.7782; as for `CCN(CC)CCOC(=O)C1(c2ccc([N+](=O)[O-])cc2)CCCC1.Cl` [Nitrocaramiphen hydrochloride], −1.1255.
Same read-out and setting: as for `NC(=O)N/N=C/c1ccc([N+](=O)[O-])o1` [Nitrofural], the figure is −0.866; as for `O=C1CN(/N=C/c2ccc([N+](=O)[O-])o2)C(=O)N1` [Nitrofurantoin], 0.3631.
On the same count and under the same terms, as for `CNC(=C[N+](=O)[O-])NCCSCc1csc(CN(C)C)n1` [Nizatidine], the figure is −0.1369.
On to `COC(=O)Nc1nc2ccc(C(=O)c3cccs3)cc2[nH]1` [Nocodazole], for which, under setting [1], the Z-score is given as 18.0445.
In the case of `CC(=O)O[C@]1(C(C)=O)CC[C@H]2[C@@H]3C=C(C)C4=CC(=O)CC[C@@H]4[C@H]3CC[C@@]21C` [Nomegestrol acetate], under setting [1], the Z-score is recorded as 1.552.
Compound `CN1Cc2c(N)cccc2C(c2ccccc2)C1` (stereo not drawn) [Nomifensine maleate] showed a Z-score under setting [1] of −1.3149.
On the same count and under the same terms, as for `CNCCC=C1c2ccccc2C=Cc2ccccc21` [Norcyclobenzaprine], the figure is −0.6046.
In the case of `C#C[C@]1(O)CC[C@H]2[C@@H]3CCC4=CC(=O)CC[C@@H]4[C@H]3CC[C@@]21C` [Norethindrone], under setting [1], the Z-score is −0.6688.
On to `C#C[C@]1(O)CC[C@H]2[C@@H]3CCC4=C(CCC(=O)C4)[C@H]3CC[C@@]21C` [Norethynodrel], for which the Z-score under setting [1] is listed as −0.7872.
With `CCn1cc(C(=O)O)c(=O)c2cc(F)c(N3CCNCC3)cc21` [Norfloxacin], the Z-score under setting [1] is recorded as 0.6666.
Same read-out and setting: as for `C#C[C@]1(O)CC[C@H]2[C@@H]3CCC4=CC(=O)CC[C@@H]4[C@H]3CC[C@@]21CC` [Norgestrel-(−)-D], the figure is 1.412; as for `CNCCC=C1c2ccccc2CCc2ccccc21` [Nortriptyline hydrochloride], −1.28.
On the same count and under the same terms, in the case of `COc1ccc2c(c1OC)C(=O)O[C@@H]2[C@H]1c2c(cc3c(c2OC)OCO3)CCN1C` [Noscapine] it was 0.8948; in that of `CO[C@@H]1[C@@H](OC(N)=O)[C@@H](O)[C@H](Oc2ccc3c(O)c(NC(=O)c4ccc(O)c(CC=C(C)C)c4)c(=O)oc3c2C)OC1(C)C` [Novobiocin sodium salt], −1.5591.
Same read-out and setting: in the case of `C[C@@H]1[C@H](O)[C@@H](C)/C=C/C=C/CC/C=C/C=C/C=C/C=C/C(O[C@H]2O[C@H](C)[C@@H](O)[C@H](N)[C@@H]2O)CC2O[C@](O)(CC(O)C(O)CCC(O)CC(O)CC(O)CC(=O)O[C@H]1C)CC(O)C2C(=O)O` (stereo partly drawn) [Nystatine] it was −0.6743.
Consider `CC1COc2c(N3CCN(C)CC3)c(F)cc3c(=O)c(C(=O)O)cn1c23` (stereo not drawn) [Ofloxacin], for which, under setting [1], the Z-score was 0.7623.
Still for that read-out and setting: as for `CO[C@H]1C[C@H](O[C@H]2[C@H](C)[C@@H](O[C@@H]3O[C@H](C)C[C@H](N(C)C)[C@H]3O)[C@@H](C)C[C@@]3(CO3)C(=O)[C@H](C)[C@@H](O)[C@@H](C)[C@@H](C)OC(=O)[C@@H]2C)O[C@@H](C)[C@@H]1O` [Oleandomycin phosphate], the figure is 0.5069.
